Experiment: DPPH radical scavenging antioxidant test
Format: biochemical
Settings: 517 nm; for Inhibition (radical scavenging inhibition): 0.2 mL DPPH (0.75 mM), compound 3 μM in ethanol, 30 min incubation in the dark
Procedure: The antioxidant activity of 5,5′-naphthalene-1,5-diylbis(diazene-2,1-diyl)bis(2-hydroxybenzaldehyde) was investigated by 2,2-diphenyl-1-picrylhydrazyl (DPPH) in vitro tests that employ vitamin C as the positive control.
The antioxidant properties of the 5,5′-naphthalene-1,5-diylbis(diazene-2,1-diyl)bis(2-hydroxybenzaldehyde) were studied by adding 0.2 mL DPPH (0.75 mM)) to compound 5,5′-naphthalene-1,5-diylbis(diazene-2,1-diyl)bis(2-hydroxybenzaldehyde) (III) (3 μM) in ethanol. After 30 min of incubation in the dark, the absorbance was read against a blank at 517 nm. Ascorbic acid (vitamin C) was used as standard antioxidants (positive control). A blank sample was prepared by 0.2 ml of DPPH in 3 ml ethanol. A negative control sample was run using ethanol instead of the sample. The radical scavenging inhibition was calculated using the following equation: […]
The antioxidant activity for the synthesized compound is listed in Table 1, using Vitamin C as a reference.

Row | Structure (SMILES) | Inhibition (radical scavenging inhibition) [%] | antioxidant potential compared to vitamin C (vanishing DPPH radical colors) (DPPH in vitro test, vitamin C as positive control)
1 | O=Cc1cc(/N=N\c2cccc3c(/N=N/c4ccc(O)c(C=O)c4)cccc23)ccc1O [Product III, 5,5′-naphthalene-1,5-diylbis(diazene-2,1-diyl)bis(2-hydroxybenzaldehyde)] | 54 | high potential as an antioxidant
2 | O=C1O[C@H]([C@@H](O)CO)C(O)=C1O [vit c, Ascorbic acid, reference compound] | 74 | 

From US11952325B1, “5,5′-naphthalene-1,5-diylbis(diazene-2,1-diyl)bis(2-hydroxybenzaldehyde) as an antioxidant compound” (KING FAISAL UNIVERSITY, priority 2023, dated 2024)
